# According to patent publication US11235043B2, “Vaccines against antigens involved in therapy resistance and methods of using same” (Duke University, priority 2012, dated 2022):
# System: 4T1-HER2 expressing tumors
# Assay: Survivin expression in the mouse 4T1-HER2 tumor model
# Type: in vivo
smiles,measurement,value
CS(=O)(=O)CCNCc1ccc(-c2ccc3ncnc(Nc4ccc(OCc5cccc(F)c5)c(Cl)c4)c3c2)o1 [lapatinib],survivin expression,no change in survivin expression
